The assay concerns the target T1, BRAF V600E (Homo sapiens, UniProt P15056, V600E).
T1 construct: endogenous C-terminal HiBiT fusion tag on BRAF V600E allele; endogenous in cells; host or cells: A375 clone 1F10 (CRISPR-Cas9 knock-in of the HiBiT tag; parental A375 from ATCC)
In words: BRAF HiBiT degradation assay, C-terminal HiBiT-tagged BRAF V600E A375 cells (clone 1F10), Nano-Glo HiBiT Lytic assay. The assay is classed as cell-based. The conditions noted are these: A375 (BRAF V600E); for DC50: DC50 at 50%: fitted conc. at Y=50; for Dmax: A-375, percentage protein degraded at maximal compound effect relative to DMSO. The procedure, abridged: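 Luminescence from the Nano-Glo HiBiT lytic read-out gave % BRAF V600E remaining versus DMSO-treated tagged cells, with untagged A375 as background. Clone 1F10 cells (10,000/well, 24 h pre-culture) received compound at 1 μM–0.01 nM in half-log steps, 0.2% DMSO; curve fits gave DC50 at Y=50, plus observed Dmax.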
For orientation: HiBiT is a short tag that completes a luciferase, so light tracks the accessible tagged protein.

Structures are written as SMILES.

T1 sequence (P15056 whole entry V600E, the tested form may be a part): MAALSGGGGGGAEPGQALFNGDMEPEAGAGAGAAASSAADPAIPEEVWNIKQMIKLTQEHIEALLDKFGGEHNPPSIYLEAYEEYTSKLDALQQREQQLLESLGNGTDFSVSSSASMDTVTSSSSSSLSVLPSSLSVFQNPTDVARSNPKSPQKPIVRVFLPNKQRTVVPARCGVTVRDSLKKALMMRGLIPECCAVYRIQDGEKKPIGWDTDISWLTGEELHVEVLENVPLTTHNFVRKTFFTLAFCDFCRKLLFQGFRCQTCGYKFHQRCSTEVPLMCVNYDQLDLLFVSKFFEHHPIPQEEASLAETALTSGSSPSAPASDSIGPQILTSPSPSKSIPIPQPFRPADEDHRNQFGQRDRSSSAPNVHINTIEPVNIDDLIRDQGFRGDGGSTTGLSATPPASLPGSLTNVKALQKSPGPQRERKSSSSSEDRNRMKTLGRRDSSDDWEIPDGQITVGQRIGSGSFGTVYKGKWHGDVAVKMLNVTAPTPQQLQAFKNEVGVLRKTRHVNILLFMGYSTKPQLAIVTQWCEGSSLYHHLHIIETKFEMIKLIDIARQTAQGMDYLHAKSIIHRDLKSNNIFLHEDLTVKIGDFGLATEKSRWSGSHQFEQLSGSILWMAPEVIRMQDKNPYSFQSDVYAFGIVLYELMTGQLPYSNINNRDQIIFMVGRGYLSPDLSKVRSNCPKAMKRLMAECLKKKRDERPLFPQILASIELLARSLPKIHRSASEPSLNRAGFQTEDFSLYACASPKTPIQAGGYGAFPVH

In the case of `CCCS(=O)(=O)Nc1cccc(-c2nc(C3CCN(C(=O)C4CCN(C(=O)C5CCN(c6ccc(C7CCC(=O)NC7=O)cc6)CC5)CC4)CC3)sc2-c2ccnc(N)n2)c1F` (racemic) [Compound 216, Rac-N-{3-[5-(2-aminopyrimidin-4-yl)-2-{1-[1-(1-{4-[(3R)-2,6-dioxopiperidin-3-yl]phenyl}piperidine-4-carbonyl)piperidine-4-carbonyl]piperidin-4-yl}-1,3-thiazol-4-yl]-2-fluorophenyl}propane-1-sulfonamide], the DC50 was < 0.01 µM and the Dmax is > 70%.

As to `CCCS(=O)(=O)Nc1cccc(-c2nc(C3CCN(C(=O)CN4CCN(c5ccc6c(c5)C(=O)N(C5CCC(=O)NC5=O)C6=O)CC4)CC3)sc2-c2ccnc(N)n2)c1F` (racemic) [Compound 233, Rac-N-{3-[5-(2-aminopyrimidin-4-yl)-2-{1-[2-(4-{2-[(3R)-2,6-dioxopiperidin-3-yl]-1,3-dioxo-2,3-dihydro-1H-isoindol-5-yl}piperazin-1-yl)acetyl]piperidin-4-yl}-1,3-thiazol-4-yl]-2-fluorophenyl}propane-1-sulfonamide], the DC50 was in the range of 0.01 to 0.05 µM and the Dmax lay within 30 to 70%.

For the compound `CCCS(=O)(=O)Nc1cccc(-c2nc(C3CCC4(CC3)CN(C(=O)C3CN(C5CCN(c6ccc7c(c6)C(=O)N(C6CCC(=O)NC6=O)C7=O)CC5)C3)C4)sc2-c2ccnc(N)n2)c1F` (racemic) [Compound 241, Rac-N-{3-[5-(2-aminopyrimidin-4-yl)-2-{2-[1-(1-{2-[(3R)-2,6-dioxopiperidin-3-yl]-1,3-dioxo-2,3-dihydro-1H-isoindol-5-yl}piperidin-4-yl)azetidine-3-carbonyl]-2-azaspiro[3.5]nonan-7-yl}-1,3-thiazol-4-yl]-2-fluorophenyl}propane-1-sulfonamide], the DC50 is < 0.01 µM and the Dmax was > 70%.

On to `CCCS(=O)(=O)Nc1cccc(-c2cn(-c3ccc(N4CCN(C(=O)C5CCN(c6ccc(C7CCC(=O)NC7=O)cc6)CC5)CC4)cc3)nc2-c2ccncc2)c1F` (racemic) [Compound 26, Rac-N-[3-(1-{4-[4-(1-{4-[(3R)-2,6-dioxopiperidin-3-yl]phenyl}piperidine-4-carbonyl)piperazin-1-yl]phenyl}-3-(pyridin-4-yl)-1H-pyrazol-4-yl)-2-fluorophenyl]propane-1-sulfonamide], for which the DC50 fell in the range of 0.05 to 0.5 µM and the Dmax lay within 30 to 70%.

Turning to `CCCS(=O)(=O)Nc1cccc(-c2nc(C(C)(C)C)sc2-c2ccnc(Nc3cccc(OC4CCN(C(=O)CN5CCc6cc(C7CCC(=O)NC7=O)ccc6C5)CC4)c3)n2)c1F` (racemic) [Compound 101, Rac-N-[3-(2-tert-butyl-5-{2-[(3-{[1-(2-{6-[(3R)-2,6-dioxopiperidin-3-yl]-1,2,3,4-tetrahydroisoquinolin-2-yl}acetyl)piperidin-4-yl]oxy}phenyl)amino]pyrimidin-4-yl}-1,3-thiazol-4-yl)-2-fluorophenyl]propane-1-sulfonamide], the DC50 was in the range of 0.01 to 0.05 µM and the Dmax is > 70%.

In the case of `CCCS(=O)(=O)Nc1cccc(-c2cn(-c3ccc(N4CCN(CC5CCN(c6ccc([C@@H]7CCC(=O)NC7=O)cn6)CC5)CC4)cc3)nc2-c2ccncc2)c1F` [Compound 1, N-{3-[1-(4-{4-[(1-{5-[(3S)-2,6-dioxopiperidin-3-yl]pyridin-2-yl}piperidin-4-yl)methyl]piperazin-1-yl}phenyl)-3-(pyridin-4-yl)-1H-pyrazol-4-yl]-2-fluorophenyl}propane-1-sulfonamide], the DC50 is 0.01 to 0.05 µM and the Dmax is > 70%.

For `CCCS(=O)(=O)Nc1cccc(-c2nc(C3CCN(C(=O)C4CCN(C(=O)C5CCN(c6ccc([C@@H]7CCC(=O)NC7=O)cc6)CC5)CC4)CC3)sc2-c2ccncc2)c1F` [Compound 200, N-[3-(2-{1-[1-(1-{4-[(3S)-2,6-dioxopiperidin-3-yl]phenyl}piperidine-4-carbonyl)piperidine-4-carbonyl]piperidin-4-yl}-5-(pyridin-4-yl)-1,3-thiazol-4-yl)-2-fluorophenyl]propane-1-sulfonamide], the DC50 fell in the range of 0.01 to 0.05 µM and the Dmax was > 70%.

With `CCCS(=O)(=O)Nc1cccc(-c2nc(C(C)(C)C)sc2-c2ccnc(NCC3CCN(CC4CCN(c5ccc([C@H]6CCC(=O)NC6=O)cc5)CC4)CC3)n2)c1F` [Compound 145, N-[3-(2-tert-butyl-5-{2-[({1-[(1-{4-[(3R)-2,6-dioxopiperidin-3-yl]phenyl}piperidin-4-yl)methyl]piperidin-4-yl}methyl)amino]pyrimidin-4-yl}-1,3-thiazol-4-yl)-2-fluorophenyl]propane-1-sulfonamide], the DC50 is > 0.5 µM and the greatest degradation seen (Dmax) is 30 to 70%.

In the case of `CCCS(=O)(=O)Nc1cccc(-c2nc(C(C)(C)C)sc2-c2ccnc(Nc3ccc4c(c3)CCN(C(=O)C3CCN(c5ccc(C(=O)NC6CCC(=O)NC6=O)nc5)CC3)C4)n2)c1F` (racemic) [Compound 122, Rac-5-(4-{6-[(4-{2-tert-butyl-4-[2-fluoro-3-(propane-1-sulfonamido)phenyl]-1,3-thiazol-5-yl}pyrimidin-2-yl)amino]-1,2,3,4-tetrahydroisoquinoline-2-carbonyl}piperidin-1-yl)-N-[(3R)-2,6-dioxopiperidin-3-yl]pyridine-2-carboxamide], the Dmax lay within 30 to 70%.

In turn, `CCCS(=O)(=O)Nc1cccc(-c2nc(C(C)(C)C)sc2-c2ccnc(Nc3ccc(C4CCN(C(=O)C[C@@H]5CCN(c6ccc7c(c6)n(C)c(=O)n7C6CCC(=O)NC6=O)C5)CC4)cc3)n2)c1F` (mixture of isomers) [Compound 162, N-{3-[2-tert-butyl-5-(2-{[4-(1-{2-[(3S)-1-{1-[(3RS)-2,6-dioxopiperidin-3-yl]-3-methyl-2-oxo-2,3-dihydro-1H-1,3-benzodiazol-5-yl}pyrrolidin-3-yl]acetyl}piperidin-4-yl)phenyl]amino}pyrimidin-4-yl)-1,3-thiazol-4-yl]-2-fluorophenyl}propane-1-sulfonamide] had a DC50 of 0.01 to 0.05 µM and a Dmax of 30 to 70%.

In the case of `CCCS(=O)(=O)Nc1cccc(-c2nc(C)sc2-c2ccnc(Nc3ccc(C4CCN(CC5CCN(c6ccc([C@@H]7CCC(=O)NC7=O)cc6)CC5)CC4)cc3)n2)c1F` [Compound 64, N-[3-(5-{2-[(4-{1-[(1-{4-[(3S)-2,6-dioxopiperidin-3-yl]phenyl}piperidin-4-yl)methyl]piperidin-4-yl}phenyl)amino]pyrimidin-4-yl}-2-methyl-1,3-thiazol-4-yl)-2-fluorophenyl]propane-1-sulfonamide], the DC50 was 0.01 to 0.05 µM and the Dmax is > 70%.

In turn, `CCCS(=O)(=O)Nc1cccc(-c2cn(-c3ccc(C(=O)N4CCN(C(=O)C5CCN(c6ccc(C7CCC(=O)NC7=O)cc6)CC5)CC4)cc3)nc2-c2ccncc2)c1F` (racemic) [Compound 14, Rac-N-[3-(1-{4-[4-(1-{4-[(3R)-2,6-dioxopiperidin-3-yl]phenyl}piperidine-4-carbonyl)piperazine-1-carbonyl]phenyl}-3-(pyridin-4-yl)-1H-pyrazol-4-yl)-2-fluorophenyl]propane-1-sulfonamide] yielded a 50% degradation concentration (DC50) of 0.05 to 0.5 µM and a Dmax of 30 to 70%.

The compound `CCCS(=O)(=O)Nc1cccc(-c2nc(C(C)(C)C)sc2-c2ccnc(Nc3ccc(C4CCN(C(=O)C[C@@H]5CCN(c6ccc(C7CCC(=O)NC7=O)cc6)C5)CC4)cc3)n2)c1F` (mixture of isomers) [Compound 166, N-{3-[2-tert-butyl-5-(2-{[4-(1-{2-[(3S)-1-{4-[(3RS)-2,6-dioxopiperidin-3-yl]phenyl}pyrrolidin-3-yl]acetyl}piperidin-4-yl)phenyl]amino}pyrimidin-4-yl)-1,3-thiazol-4-yl]-2-fluorophenyl}propane-1-sulfonamide] yielded a DC50 of 0.05 to 0.5 µM and a Dmax of 30 to 70%.

`CCCS(=O)(=O)Nc1cccc(-c2nc(C(C)(C)C)sc2-c2ccnc(Nc3cnn(C4CCN(CC5CCN(c6ccc(C(=O)NC7CCC(=O)NC7=O)nc6)CC5)CC4)c3)n2)c1F` (racemic) [Compound 79, Rac-5-{4-[(4-{4-[(4-{2-tert-butyl-4-[2-fluoro-3-(propane-1-sulfonamido)phenyl]-1,3-thiazol-5-yl}pyrimidin-2-yl)amino]-1H-pyrazol-1-yl}piperidin-1-yl)methyl]piperidin-1-yl}-N-[(3R)-2,6-dioxopiperidin-3-yl]pyridine-2-carboxamide]: the 50% degradation concentration (DC50) is < 0.01 µM and the Dmax lay within 30 to 70%.

Consider `CCCS(=O)(=O)Nc1cccc(-c2nc(C3CCN(C(=O)CN4CCC5(CC4)CN(c4ccc6c(c4)C(=O)N(C4CCC(=O)NC4=O)C6=O)C5)CC3)sc2-c2ccnc(N)n2)c1F` (racemic) [Compound 239, Rac-N-{3-[5-(2-aminopyrimidin-4-yl)-2-{1-[2-(2-{2-[(3R)-2,6-dioxopiperidin-3-yl]-1,3-dioxo-2,3-dihydro-1H-isoindol-5-yl}-2,7-diazaspiro[3.5]nonan-7-yl)acetyl]piperidin-4-yl}-1,3-thiazol-4-yl]-2-fluorophenyl}propane-1-sulfonamide], for which the DC50 is < 0.01 µM and the Dmax was > 70%.

In turn, `CCCS(=O)(=O)Nc1cccc(-c2nc(C(C)(C)C)sc2-c2ccnc(N[C@H]3CC[C@H](N4CCN(C(=O)C5CCN(c6ccc(C7CCC(=O)NC7=O)cn6)CC5)CC4)CC3)n2)c1F` (mixture of isomers) [Compound 137, N-{3-[2-tert-butyl-5-(2-{[(1r,4r)-4-[4-(1-{5-[(3RS)-2,6-dioxopiperidin-3-yl]pyridin-2-yl}piperidine-4-carbonyl)piperazin-1-yl]cyclohexyl]amino}pyrimidin-4-yl)-1,3-thiazol-4-yl]-2-fluorophenyl}propane-1-sulfonamide] had a DC50 of 0.05 to 0.5 µM and a Dmax of 30 to 70%.

Usually DC50 stands for the midpoint of the concentration-degradation curve. Read a high DC50 as degradation only at high concentration. The term Dmax denotes the largest share of the target that was removed. A lower Dmax goes with shallow degradation.

The record behind these values is patent US20260317324A1, “BIFUNCTIONAL COMPOUNDS FOR DEGRADING BRAF VIA UBIQUITIN PROTEOSOME PATHWAY” (Nurix Therapeutics, Inc., priority 2023, published 2026).
